Test results from article PMC8037182, “Solvothermal Synthesis of Multiple Dihydropyrimidinones at a Time as Inhibitors of Eg5” (Molecules, 2021).

Assays:
Hela cell line = test: Cytotoxicity MTS assay, Hela cell line; format: cell-based; conditions: for OD490 value, Mean / OD490 value, Well 1 / OD490 value, Well 2 / OD490 value, Well 3: Hela cell line, MTS;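 on OD490 value, Mean: blank control wells received 0.025% DMSO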;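 on OD490 value, Well 1: blank control wells received 0.025% DMSO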;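 on OD490 value, Well 2: blank control wells received 0.025% DMSO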;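 on OD490 value, Well 3: blank control wells received 0.025% DMSO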
How it was run: (§1)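 Cells were seeded at 1000 per well, allowed 24 h, then exposed to compounds at final concentrations of 0.5 to 100 µM for 24 h, with 0.025% DMSO as blank. MTS reagent was added for 2 h at 37 °C and absorbance read at 490 nm. IC50 came from non-linear regression of viability against concentration.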

Caco-2 cell line = test: Cytotoxicity MTS assay, Caco-2 cell line; format: cell-based; conditions: for OD490 Mean / OD490 Well 1 / OD490 Well 2 / OD490 Well 3: Caco-2 cell line
How it was run: as §1

melting point: 253 to 257 °C
SMILES: CCOc1ccccc1C1NC(=S)NC(C)=C1C(=O)Nc1ccc(Cl)cc1 (stereo not drawn) [C9]
OD490 value, Mean (Hela cell line; 0.5μM, first assay): 2.5086 | OD490 value, Well 1 (Hela cell line; 0.5μM, first assay): 2.5337 | OD490 value, Well 2 (Hela cell line; 0.5μM, first assay): 2.5147 | OD490 value, Well 3 (Hela cell line; 0.5μM, first assay): 2.4773 | OD490 value, Mean (Hela cell line; 0.5μM, second assay): 2.5027 | OD490 value, Well 1 (Hela cell line; 0.5μM, second assay): 2.5377 | OD490 value, Well 2 (Hela cell line; 0.5μM, second assay): 2.5102 | OD490 value, Well 3 (Hela cell line; 0.5μM, second assay): 2.4603 | OD490 value, Mean (Hela cell line; 0.5μM, third assay): 2.5209 | OD490 value, Well 1 (Hela cell line; 0.5μM, third assay): 2.7845 | OD490 value, Well 2 (Hela cell line; 0.5μM, third assay): 2.5536 | OD490 value, Well 3 (Hela cell line; 0.5μM, third assay): 2.2245 | OD490 value, Mean (Hela cell line; 1μM, first assay): 2.3583 | OD490 value, Well 1 (Hela cell line; 1μM, first assay): 2.1436 | OD490 value, Well 2 (Hela cell line; 1μM, first assay): 2.5164 | OD490 value, Well 3 (Hela cell line; 1μM, first assay): 2.4149 | OD490 value, Mean (Hela cell line; 1μM, second assay): 2.3955 | OD490 value, Well 1 (Hela cell line; 1μM, second assay): 2.2145 | OD490 value, Well 2 (Hela cell line; 1μM, second assay): 2.4935 | OD490 value, Well 3 (Hela cell line; 1μM, second assay): 2.4784 | OD490 value, Mean (Hela cell line; 1μM, third assay): 2.4734 | OD490 value, Well 1 (Hela cell line; 1μM, third assay): 2.4685 | OD490 value, Well 2 (Hela cell line; 1μM, third assay): 2.5532 | OD490 value, Well 3 (Hela cell line; 1μM, third assay): 2.3985 | OD490 value, Mean (Hela cell line; 10μM, first assay): 2.3086 | OD490 value, Well 1 (Hela cell line; 10μM, first assay): 2.1660 | OD490 value, Well 2 (Hela cell line; 10μM, first assay): 2.3778 | OD490 value, Well 3 (Hela cell line; 10μM, first assay): 2.3820 | OD490 value, Mean (Hela cell line; 10μM, second assay): 2.1859 | OD490 value, Well 1 (Hela cell line; 10μM, second assay): 2.2135 | OD490 value, Well 2 (Hela cell line; 10μM, second assay): 2.1456 | OD490 value, Well 3 (Hela cell line; 10μM, second assay): 2.1987 | OD490 value, Mean (Hela cell line; 10μM, third assay): 2.4047 | OD490 value, Well 1 (Hela cell line; 10μM, third assay): 2.2123 | OD490 value, Well 2 (Hela cell line; 10μM, third assay): 2.5652 | OD490 value, Well 3 (Hela cell line; 10μM, third assay): 2.4365 | OD490 value, Mean (Hela cell line; 25μM, first assay): 1.8211 | OD490 value, Well 1 (Hela cell line; 25μM, first assay): 1.4666 | OD490 value, Well 2 (Hela cell line; 25μM, first assay): 1.9622 | OD490 value, Well 3 (Hela cell line; 25μM, first assay): 2.0346 | OD490 value, Mean (Hela cell line; 25μM, second assay): 1.8416 | OD490 value, Well 1 (Hela cell line; 25μM, second assay): 1.7589 | OD490 value, Well 2 (Hela cell line; 25μM, second assay): 1.8637 | OD490 value, Well 3 (Hela cell line; 25μM, second assay): 1.9021 | OD490 value, Mean (Hela cell line; 25μM, third assay): 1.8662 | OD490 value, Well 1 (Hela cell line; 25μM, third assay): 1.7769 | OD490 value, Well 2 (Hela cell line; 25μM, third assay): 1.8252 | OD490 value, Well 3 (Hela cell line; 25μM, third assay): 1.9965 | OD490 value, Mean (Hela cell line; 50μM, first assay): 1.6538 | OD490 value, Well 1 (Hela cell line; 50μM, first assay): 1.2953 | OD490 value, Well 2 (Hela cell line; 50μM, first assay): 1.8006 | OD490 value, Well 3 (Hela cell line; 50μM, first assay): 1.8654 | OD490 value, Mean (Hela cell line; 50μM, second assay): 1.6346 | OD490 value, Well 1 (Hela cell line; 50μM, second assay): 1.5694 | OD490 value, Well 2 (Hela cell line; 50μM, second assay): 1.6357 | OD490 value, Well 3 (Hela cell line; 50μM, second assay): 1.6987 | OD490 value, Mean (Hela cell line; 50μM, third assay): 1.6911 | OD490 value, Well 1 (Hela cell line; 50μM, third assay): 1.6532 | OD490 value, Well 2 (Hela cell line; 50μM, third assay): 1.7755 | OD490 value, Well 3 (Hela cell line; 50μM, third assay): 1.6445 | OD490 value, Mean (Hela cell line; 100μM, first assay): 1.1310 | OD490 value, Well 1 (Hela cell line; 100μM, first assay): 0.9154 | OD490 value, Well 2 (Hela cell line; 100μM, first assay): 1.2917 | OD490 value, Well 3 (Hela cell line; 100μM, first assay): 1.1859 | OD490 value, Mean (Hela cell line; 100μM, second assay): 1.0983 | OD490 value, Well 1 (Hela cell line; 100μM, second assay): 1.1234 | OD490 value, Well 2 (Hela cell line; 100μM, second assay): 1.1125 | OD490 value, Well 3 (Hela cell line; 100μM, second assay): 1.0589 | OD490 value, Mean (Hela cell line; 100μM, third assay): 1.1051 | OD490 value, Well 1 (Hela cell line; 100μM, third assay): 1.0232 | OD490 value, Well 2 (Hela cell line; 100μM, third assay): 1.1136 | OD490 value, Well 3 (Hela cell line; 100μM, third assay): 1.1784 | IC50 (Hela cell line; Homo sapiens, HeLa, 24 h, MTS assay, 24 h exposure): 75.6 µM | OD490 Mean (Caco-2 cell line; 0.5μM, first assay): 0.6579 | OD490 Well 1 (Caco-2 cell line; 0.5μM, first assay): 0.6600 | OD490 Well 2 (Caco-2 cell line; 0.5μM, first assay): 0.6452 | OD490 Well 3 (Caco-2 cell line; 0.5μM, first assay): 0.6685 | OD490 Mean (Caco-2 cell line; 0.5μM, second assay): 0.6430 | OD490 Well 1 (Caco-2 cell line; 0.5μM, second assay): 0.6499 | OD490 Well 2 (Caco-2 cell line; 0.5μM, second assay): 0.6217 | OD490 Well 3 (Caco-2 cell line; 0.5μM, second assay): 0.6574 | OD490 Mean (Caco-2 cell line; 0.5μM, third assay): 0.6809 | OD490 Well 1 (Caco-2 cell line; 0.5μM, third assay): 0.6676 | OD490 Well 2 (Caco-2 cell line; 0.5μM, third assay): 0.6999 | OD490 Well 3 (Caco-2 cell line; 0.5μM, third assay): 0.6752 | OD490 Mean (Caco-2 cell line; 1μM, first assay): 0.6557 | OD490 Well 1 (Caco-2 cell line; 1μM, first assay): 0.6594 | OD490 Well 2 (Caco-2 cell line; 1μM, first assay): 0.6683 | OD490 Well 3 (Caco-2 cell line; 1μM, first assay): 0.6393 | OD490 Mean (Caco-2 cell line; 1μM, second assay): 0.6328 | OD490 Well 1 (Caco-2 cell line; 1μM, second assay): 0.6398 | OD490 Well 2 (Caco-2 cell line; 1μM, second assay): 0.6387 | OD490 Well 3 (Caco-2 cell line; 1μM, second assay): 0.6200 | OD490 Mean (Caco-2 cell line; 1μM, third assay): 0.6578 | OD490 Well 1 (Caco-2 cell line; 1μM, third assay): 0.6898 | OD490 Well 2 (Caco-2 cell line; 1μM, third assay): 0.6914 | OD490 Well 3 (Caco-2 cell line; 1μM, third assay): 0.5921 | OD490 Mean (Caco-2 cell line; 10μM, first assay): 0.6390 | OD490 Well 1 (Caco-2 cell line; 10μM, first assay): 0.5664 | OD490 Well 2 (Caco-2 cell line; 10μM, first assay): 0.6539 | OD490 Well 3 (Caco-2 cell line; 10μM, first assay): 0.6968 | OD490 Mean (Caco-2 cell line; 10μM, second assay): 0.5939 | OD490 Well 1 (Caco-2 cell line; 10μM, second assay): 0.5553 | OD490 Well 2 (Caco-2 cell line; 10μM, second assay): 0.5431 | OD490 Well 3 (Caco-2 cell line; 10μM, second assay): 0.6832 | OD490 Mean (Caco-2 cell line; 10μM, third assay): 0.6521 | OD490 Well 1 (Caco-2 cell line; 10μM, third assay): 0.6349 | OD490 Well 2 (Caco-2 cell line; 10μM, third assay): 0.6214 | OD490 Well 3 (Caco-2 cell line; 10μM, third assay): 0.7001 | OD490 Mean (Caco-2 cell line; 25μM, first assay): 0.5635 | OD490 Well 1 (Caco-2 cell line; 25μM, first assay): 0.5780 | OD490 Well 2 (Caco-2 cell line; 25μM, first assay): 0.5488 | OD490 Well 3 (Caco-2 cell line; 25μM, first assay): 0.5637 | OD490 Mean (Caco-2 cell line; 25μM, second assay): 0.5347 | OD490 Well 1 (Caco-2 cell line; 25μM, second assay): 0.5232 | OD490 Well 2 (Caco-2 cell line; 25μM, second assay): 0.5214 | OD490 Well 3 (Caco-2 cell line; 25μM, second assay): 0.5594 | OD490 Mean (Caco-2 cell line; 25μM, third assay): 0.6041 | OD490 Well 1 (Caco-2 cell line; 25μM, third assay): 0.6789 | OD490 Well 2 (Caco-2 cell line; 25μM, third assay): 0.5214 | OD490 Well 3 (Caco-2 cell line; 25μM, third assay): 0.6121 | OD490 Mean (Caco-2 cell line; 50μM, first assay): 0.4407 | OD490 Well 1 (Caco-2 cell line; 50μM, first assay): 0.4378 | OD490 Well 2 (Caco-2 cell line; 50μM, first assay): 0.4511 | OD490 Well 3 (Caco-2 cell line; 50μM, first assay): 0.4331 | OD490 Mean (Caco-2 cell line; 50μM, second assay): 0.4117 | OD490 Well 1 (Caco-2 cell line; 50μM, second assay): 0.3953 | OD490 Well 2 (Caco-2 cell line; 50μM, second assay): 0.4678 | OD490 Well 3 (Caco-2 cell line; 50μM, second assay): 0.3721 | OD490 Mean (Caco-2 cell line; 50μM, third assay): 0.4510 | OD490 Well 1 (Caco-2 cell line; 50μM, third assay): 0.4963 | OD490 Well 2 (Caco-2 cell line; 50μM, third assay): 0.3954 | OD490 Well 3 (Caco-2 cell line; 50μM, third assay): 0.4613 | OD490 Mean (Caco-2 cell line; 100μM, first assay): 0.3208 | OD490 Well 1 (Caco-2 cell line; 100μM, first assay): 0.2950 | OD490 Well 2 (Caco-2 cell line; 100μM, first assay): 0.3313 | OD490 Well 3 (Caco-2 cell line; 100μM, first assay): 0.3360 | OD490 Mean (Caco-2 cell line; 100μM, second assay): 0.2995 | OD490 Well 1 (Caco-2 cell line; 100μM, second assay): 0.2898 | OD490 Well 2 (Caco-2 cell line; 100μM, second assay): 0.3121 | OD490 Well 3 (Caco-2 cell line; 100μM, second assay): 0.2965 | OD490 Mean (Caco-2 cell line; 100μM, third assay): 0.3309 | OD490 Well 1 (Caco-2 cell line; 100μM, third assay): 0.3633 | OD490 Well 2 (Caco-2 cell line; 100μM, third assay): 0.2374 | OD490 Well 3 (Caco-2 cell line; 100μM, third assay): 0.3921 | IC50 (Caco-2 cell line; Homo sapiens, Caco-2, MTS assay, 24 h exposure): 65.8 µM
